Source: patent publication US8039501B2, “Synephrine derivatives useful as anti-inflammatory agents” (Universiteit Gent, priority 2005, dated 2011)
“And” between values parts separate entries of the source, which are not always exact repeats. Equal values may be shown once.

Experiments:
[1] = test system: B-CLL cells; assay: Annexin V/PI flow cytometric analysis of apoptosis in ex-vivo cultured B-CLL cells; type: cell-based, human; settings: 24 hours
Experimental: Blood samples were obtained from B-CLL patients after informed consent according to institutional guidelines. CLL lymphocytes were isolated using Lymphoprep (Nycomed Pharma, Denmark) and re-suspended at a final concentration of 10−30×10^6 cells/ml in RPMI 1640 medium, supplemented with 10% heat-inactivated fetal bovine serum (FBS) (Greiner Bio-one, Wemmel, Belgium), 100 IU/ml penicillin, 100 μg/ml streptomycin, and 0.56 μg/mL fungizone (Gibco BRL, Merelbeke, Belgium). B-CLL cells were cultured in Dulbecco's Modified Eagle Medium (DMEM) (Gibco, Invitrogen Inc.) containing 10% FBS (Gibco, Invitrogen Inc.). For flow cytometric analysis of apoptosis, B-CLL cells were treated with the different compounds for 24 hours, 3×10^5 cells were removed from the culture medium, washed twice with cold PBS, and double stained with annexin V-fluorescein isothiocyanate (FITC) and propidium iodide (PI; Beckman Coulter, Miami, Fla.) in Annexin binding buffer, followed by analysis on a FC500PTM (Beckman Coulter, Nyon, Switzerland) flow cytometer. Flow cytometric data were analyzed using Cytomixs RXP software (Beckman Coulter, Nyon, Switzerland). To avoid non-specific fluorescence from dead cells, live cells were gated using forward and side scatter.
One of the early signs of apoptosis is the translocation of the membrane phospholipid phosphatidylserine from the cytoplasmic interface to the extracellular surface. Annexin V has a high affinity for the phospatidylserine-containing phospholipid bilayers. […] As the plasma membrane becomes increasingly permeable during the later stages of apoptosis, the DNA-binding dye PI can readily move across the cell membrane and bind to cellular DNA, providing a means to detect the loss of membrane integrity through mechanisms including necrosis. Three different cell populations can be observed in cells double-stained with AnnV-FITC and PI. […] Cells that stain with Ann V only are early apoptotic cells. And cells that stain with both AnnV and PI are late apoptotic/necrotic cells. The percentage of AnnV-positive B-CLL cells in the lymphocyte gate were measured by FACS and results were expressed as % apoptotic cells, i.e. sum of early apoptotic (AnnV+, PI−), and late apoptotic/dead cells (AnnV+, PI+). The percent of living cells was normalized to 100% living cells incubated in control medium with 0.1% EtOH. All measurements were made in duplicate and averaged.

[2] = test system: bfl1 gene; assay: RNase protection analysis of bfl1 gene in MCF7 cells; type: cell-based, human; settings: 10 μM pre-treated 2 hours, TNF, FIG. 9
Experimental: In a first specific gene expression experiment, RNAse protection analysis on the bfl1 gene, coding for BCL2-related protein A1 that has anti-apoptotic activity. FIG. 9 illustrates the results of the RNAse protection analysis. Cells were pre-treated with CpdA (10 μM) and DEX (1 μM) for 2 hours before TNF induction or non-induction for a total period of 8 hours. Total RNA was recovered (see hereunder for the total RNA extraction protocol) and an RNA protection Assay (hereinafter referred to as RPA) was performed. Transcripts were quantified by autoradiography followed by densiometry.
For the total RNA extraction, 10^5 cell were homogenized in 1 ml of TRIzol Reagent (GIBCO BRL), incubated 5 minutes at room temperature; then added 200 μl chloroform, vortexed 15 seconds. Mix was incubated on ice for 5 minutes. […]
RNase Protection Assay (Pharmingen) was used for the detection and quantitation of A1/bfl mRNA species. […] The pelleted RNA was re-suspended in 6 μl of gel loading buffer, incubated at 95° C. for 5 minutes, quickly quenched on ice and analyzed by electrophoresis on 6% polyacrylamide/8M urea gels. Visualization and quantitation of radioactive bands was carried out by a Phosphorlmager and scanned using a bioimaging analyzer (Personal Molecular Imager® FX Bio-Rad). Densitometry analysis of autoradiograms was performed using Quantity One (Bio-Rad). […]

CNCC(Cl)c1ccc(OC(C)=O)cc1.Cl (stereo not shown) [CpdA, 2-(4-acetoxyphenyl)-2-chloro-N-methyl-ethylammonium chloride]
% apoptotic cells, CLL patient 1 ([1]; 10^−6M): 43% | % apoptotic cells, CLL patient 2 ([1]; 10^−6M): 54% | Apoptosis in cells from 2 different CLL patients ([1]; 10^−7M): 40% and 55% | Transcription of bfl1 gene (RNase protection) [2]: inhibits transcription of the prosurvival gene A
